From ChEMBL document CHEMBL1201862, “PubChem BioAssay data set” (2004) come the findings set out here.

Common to all, as to test: NCI tumour cell line growth inhibition, 48 h
The subject of experiment [1] is UACC-257.
Experiment [2] deals with HOP-92.
The test system of experiment [3] is OVCAR-3.
The subject of experiment [4] is TK-10.
Experiment [5] concerns CCRF-CEM.
Experiment [6] has as its system RPMI-8226.
In experiment [7] the test system is IGROV-1.
Experiment [8] has as its system SK-MEL-2.
For experiment [9], the system named is LOX IMVI.
The test system of experiment [10] is A498.
Experiment [11] deals with HCT-15.
Experiment [12] has as its system COLO 205.
The subject of experiment [13] is HL-60.
For experiment [14], the system named is NCI-H23.
For experiment [15], the system named is Malme-3M.
Experiment [16] deals with CAKI-1.
In experiment [17] the test system is M14.
Experiment [18] deals with SF-539.
Experiment [19] has as its system OVCAR-5.
The subject of experiment [20] is SK-OV-3.

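Each compound was tested at five concentrations against cells in 96-well plates for 48 hours. GI50 = concentration required for 50% inhibition of growth.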 Calls of active or inactive are those of the source. No stated cut-off is given here; in the data, active = GI50 up to about 1.1 µM and inactive = higher.

With `CN(C)[C@@H]1C(O)=C(C(=O)NCN2CCN(C(=N)NC(=N)N)CC2)C(=O)[C@@]2(O)C(O)=C3C(=O)c4c(O)cccc4[C@@](C)(O)[C@H]3C[C@@H]12`, the GI50 in experiment [1] is 324 nM (active); in [2] it was 279 nM (active); in experiment [3] it was 287 nM (active); in experiment [4], 468 nM (active); in experiment [5], 110 nM (active); in experiment [6], 31.5 nM (active). Also, the GI50 in experiment [7] is 207 nM (active); in experiment [8], 113 nM (active); in experiment [9] it was 156 nM (active); in experiment [10] it was 1140 nM (inactive); in experiment [11], 72.1 nM; in [12], 79.8 nM (active). Further, the GI50 was 23.6 nM (active) in [13]; 136 nM (active) in experiment [14]; 269 nM (active) in experiment [15]; 274 nM (active) in experiment [16]; 279 nM (active) in [17]; 216 nM (active) in experiment [18]. The GI50 is 282 nM (active) in experiment [19] and 1290 nM (inactive) in experiment [20].
